Laboratory results taken from patent US6790859B2, “Reversing advanced glycosylation cross-links using heterocyclic-substituted thiazolium compounds” (Alteon Incorporated, priority 1998, dated 2004).

How the values were obtained:
[1] = test system: IgG bound to the surface of RBC (AGE cross-links); test: Reversing AGE cross-links: RBC-IgG assay (IgG bound to RBC from streptozotocin-diabetic rats); format: cell-based, rat; conditions: RBC of streptozotocin-diabetic rats incubated with test compound in PBS overnight at 37° C.; concentration not given
Description: The activity of the compounds of the present invention to reverse AGE cross-links was evaluated in an in-vitro model, as follows. Blood was collected from streptozotocin-diabetic rats (6 to 8 wk diabetic) in heparinized tubes, centrifuged at 2500×g for 15 min. at […], and the plasma and buffy-coat layers aspirated off. The RBC were washed with PBS (ca. 5 ml PBS per ml blood) three times. Test compounds were dissolved in PBS and the pH adjusted to 7.0, if necessary. Two hundred microliters of washed RBC were added to 2 mL of test compound solution, and the mixture was incubated overnight at 37° C. […] After the overnight incubation, the reaction mixtures were centrifuged and the RBC pellets were washed three times with PBS, followed by diluting 1:30 in PBS. Immunoglobulin G (IgG) bound to the surface of the washed RBCs was then determined. Assay for RBC-IgG: The assay is performed in a Multiscreen-HA, 0.45 μm cellulose mixed esters membrane-sealed 96 well plate (Millipore MAHAS45). The membranes are first wet by filling the wells with 100 uL PBS, and the wells emptied by applying a vacuum to the Millititer vacuum manifold. Three hundred uL of Superblock (pre-warmed to 37° C.) is then added to each well and incubated at 37° C. for one hour. The Superblock is then removed from the wells by application of vacuum, then the wells are washed once with 300 ul of PBS-Tween (0.05%) and three times with PBS. The vacuum is then turned off. One hundred μl of PBS is then added to each well. Each RBC sample is gently vortexed, and 50 uL pipetted into the wells, in sextuplicate. The wells labeled A1-A3 are left for a reagent blank and wells A4-A6 reserved for an antibody blank. Vacuum is then applied to remove the buffer and the RBCs are washed once with PBS. Alkaline phosphatase-labeled rabbit-anti-rat IgG is diluted 1 to 25000 in PBS, and 50 μl is added to triplicate wells of each sample. PBS alone is added to the other three wells of each sample. These will serve as sample blanks to adjust for any endogenous alkaline phosphatase activity. The samples are allowed to stand at room temperature for two hours. The solution is then removed by application of vacuum and the red blood cells are washed with PBS-Tween twice, PBS twice and with TBS twice. The bottom of the plate is rinsed with distilled water and blotted dry with paper towels. To each well is then added 100 μl of p-nitrophenyl phosphate substrate (1 mg/ml in diethanolamine buffer pH 9.5), and the color is allowed to develop for two hours at 37° C. The solutions in each well are then transferred to a 96 well microtiter plate inside the vacuum manifold. One hundred μl of PBS to each well and vacuum applied again to transfer any remaining solution into the microtiter plate. The OD at 410 nm is then read in a Dynatech Plate reader (Sample filter 1 and Ref. filter 4). For data analysis, breaking activity (percent reversal) is expressed as the percent decrease in O.D. caused by incubation of RBC with the test compound compared to RBC incubated in PBS alone. Using the above assay, the following data was generated on the compounds of the present invention: […]

[2] = test system: AGE-BSA cross-linked to rat tail tendon collagen (type 1); test: Reversing collagen cross-links: AGE-BSA cross-linked to rat tail tendon collagen-coated plates; format: biochemical; conditions: 3 mM test compound, overnight at 37° C.
Description: In a further evaluation of the ability of compounds of the present invention to reverse AGE cross-links between a circulating protein and collagen, AGE-BSA was cross-linked to rat tail tendon collagen (type 1)-coated 96 well microtiter plates, and reversal of cross-linking was determined.
AGE-BSA preparation. AGE-BSA is prepared by incubation of a solution of BSA (400 mg/ml) in 0.4 M sodium phosphate buffer pH 7.4 with an equal volume of 400 mM glucose solution in the same buffer at 37° C. for 12 weeks. The pH of the incubation mixture is monitored weekly and adjusted to pH 7.4 if necessary. After 12 weeks, the AGE-BSA solution is dialyzed against PBS for 48 hours with 4 buffer changes. Protein concentration is determined by the micro-Lowry method.
Assay protocol. […] AGE-BSA was diluted in PBS to a concentration required to obtain maximum cross-linking as determined in a preliminary experiment. […]
Test compounds are dissolved in PBS and pH adjusted to 7.0 if necessary. […] The test compounds and PBS are also added to triplicate wells incubated with BSA, to obtain the blank readings. […]
The plate is washed with PBS-Tween, […] of Rabbit-anti-BSA antibody (1 to 4000 in PBS) is added to each well and the plate is incubated at room temperature for 60 min. […] Optical density is read at 410 nm with the sample filter set to “1” and the reference filter set to “5” on the Dynatech ELISA plate reader. […]

Structure (SMILES)	Percent reversal (breaking activity: percent decrease in O.D. vs RBC incubated in PBS alone) [1] [%]	reversal of AGE cross-links (percent breaking, decrease in OD of TTC-AGE-BSA wells vs PBS) [2] [%]
Cc1sc[n+](CC(=O)c2ccco2)c1C.[Br-] [3-(2-(2-furanyl)-2-oxoethyl)-4,5-dimethylthiazolium bromide]	76	
Cc1sc[n+](CC(=O)c2cccs2)c1C.[Br-] [3-(2-(2-thienyl)-2-oxoethyl)-4,5-dimethyl-thiazolium bromide]	53	
Cc1sc[n+](CC(=O)c2ccccn2)c1C.[Br-] [3-(2-(2-pyridinyl)-2-oxoethyl)-4,5-dimethyl-thiazolium bromide]	27	
Cc1sc[n+](CC(=O)N2CCC(Cc3ccccc3)CC2)c1C.[Cl-] [3-[2-(4-benzyl-1-piperidinyl)-2-oxoethyl]-4,5-dimethylthiazolium chloride]	70	
Cc1sc[n+](CC(=O)N2CCCC2)c1C.[Br-] [3-(2-(1-pyrrolidinyl)-2-oxoethyl)-4,5-dimethyl-thiazolium bromide]	63	
Cc1sc[n+](CC(=O)c2ccc3c(c2)CCC(=O)N3)c1C.[Br-] [3-[2-(2-oxo-1,2,3,4-tetrahydro-6-quinolinyl)-2-oxoethyl]-4,5-dimethylthiazolium bromide]	84	
Cc1sc[n+](CC(=O)N2CC(C)OC(C)C2)c1C.[Br-] (stereo not drawn) [3-[2-(2,6-dimethyl-4-morpholinyl)-2-oxoethyl]-4,5-dimethylthiazolium bromide]	38	
O=C(C[n+]1ccsc1)c1cc(-c2ccccc2)no1.[Br-] [3-[2-(3-phenyl-5-isoxazolyl)-2-oxoethyl]-thiazolium bromide]	38	15
Cc1c(CCO)sc[n+]1CC(=O)c1cccs1.[Br-] [3-(2-(2-thienyl)-2-oxoethyl)-4-methyl-5-hydroxyethylthiazolium bromide]	24	
Cc1sc[n+](CC(=O)N2CCSCC2)c1C.[Br-] [3-(2-(4-thiomorpholinyl)-2-oxoethyl)-4,5-dimethylthiazolium bromide]	47	
Cc1sc[n+](CC(=O)N2CCCCC2)c1C.[Br-] [3-(2-(1-piperidinyl)-2-oxoethyl)-4,5-dimethylthiazolium bromide]	37	
